Calls of active or inactive are those of the source.
How the values were obtained:
[1] = molecular target: T1, Polyadenylate-binding protein 1 (Homo sapiens, UniProt P11940); experiment: MLLE domain peptide-binding blockers, IC50 – biochemical, fluorescence polarization, FITC-PAM2 peptide, dose response (AID 602259); assay type: functional; conditions: read-out: IC50_Mean
[2] = molecular target: T1, Polyadenylate-binding protein 1; experiment: MLLE binding blockers, Cy5 peptide tracer – biochemical, fluorescence polarization, Cy5-PAM2 peptide, secondary, miRNA deadenylation inhibitor project, dose response (AID 602260); assay type: functional; conditions: read-out: IC50_Mean
[3] = molecular target: Dual specificity tyrosine-phosphorylation-regulated kinase 1A (Rattus norvegicus, UniProt Q63470); assay type: biochemical, Homo sapiens
Large T antigen = Large T antigen (Simian virus 40, UniProt P03070); assay type: functional, Betapolyomavirus macacae;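 note: Confirmatory-stage PubChem screen for compounds that inhibit SV40 T antigen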
[4] = Luminescence Cell-Based Dose Response HTS to Identify Inhibitors of 5'UTR Stem-Loop Driven Prion Protein mRNA Translation in H4 Neuroglioblastoma Cells. [Related pubchem assays: 1827 (Project Summary), 1813 (Primary HTS)]; assay type: functional
Vero [5] = experiment: cells; assay type: functional, cell-based; conditions: Chlorocebus sabaeus
[6] = luciferase reporter signal suppression in cells – H4 neuroglioma cells, luminescence, dose response (AID 1990); assay type: functional, cell-based
[7] = alpha-synuclein stem-loop luciferase translation blockers – H4 neuroglioma cells, luminescence, confirmation (AID 1988); assay type: functional, cell-based
Vero [8] = experiment: cells; assay type: functional; conditions: Chlorocebus sabaeus
H9c2 = experiment: cells; assay type: functional, cell-based; conditions: Rattus norvegicus, H9c2, Myocardium;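 note: confirmatory concentration-response retest of ultra-high-throughput screening hits for modulation of myocardial damage; cell death induced by hydrogen peroxide oxidative stress; compound pretreatment for 60 min then peroxide exposure for 2 h; potency is for protecting the cells against peroxide damage rather than for killing them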
[9] = NIH3T3 cell viability loss – ATP luminescence, mouse fibroblasts, counter-screen, dose response (AID 2010); assay type: functional, cell-based;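 note: cells exposed to compound for about 90 hours before reading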
[10] = Trypanosoma cruzi growth suppression in host cells – NIH3T3 host cells, beta-gal luminescence, confirmation (AID 2044); assay type: functional, cell-based;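 note: intracellular parasites grown in NIH/3T3 mouse fibroblasts as host cells; luminescent beta-galactosidase reporter signal from transgenic T. cruzi replicating inside host cells; inhibitors lower the luminescence signal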
CAAX prenyl protease 2 [11] = molecular target: CAAX prenyl protease 2 (Saccharomyces cerevisiae S288c, UniProt Q03530); assay type: biochemical
Trypsin = Trypsin (Sus scrofa, UniProt P00761); experiment: trypsin protease activity blockade – biochemical, quenched peptide fluorescence, cherry-pick, selectivity assay for Rce1 protease inhibitor project, dose response (AID 488789)
[12] = molecular target: T2, Ubiquitin-conjugating enzyme E2 N (Homo sapiens, UniProt P61088); assay type: functional;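 note: Dose-response confirmation in a TR-FRET assay detecting UBC13-driven polyubiquitin chain formation, inhibition measured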
T2 sequence (P61088 whole entry): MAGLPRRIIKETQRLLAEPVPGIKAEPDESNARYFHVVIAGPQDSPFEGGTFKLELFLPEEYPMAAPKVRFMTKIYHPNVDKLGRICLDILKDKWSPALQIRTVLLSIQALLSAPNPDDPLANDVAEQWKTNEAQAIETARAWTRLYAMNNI

CAAX prenyl protease 2 [13] = molecular target: CAAX prenyl protease 2 (Homo sapiens, UniProt Q9Y256); experiment: inhibition of Ras-converting CAAX protease Rce1 – biochemical, yeast membranes, quenched-peptide fluorescence, cherry-pick, dose response (AID 588849)
[14] = system: Streptococcus sp. 'group A'; experiment: Streptococcus pyogenes SK(-)GAS viability under kanamycin – luminescence, BacTiterGlo, confirmation, counter-screen for streptokinase expression inhibitor project, dose response (AID 1900); assay type: functional, organism-based
Streptococcus = experiment: GAS UMAA2166 growth inhibition – luminescence, BacTiterGlo, counter-screen for streptokinase expression inhibitor project, dose response (AID 1915); assay type: functional, organism-based;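 note: potency for reduction of bacterial viability or growth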
Hexokinase HKDC1 = molecular target: T3, Hexokinase HKDC1 (Homo sapiens, UniProt Q2TB90); experiment: inhibition of HKDC1 glucose phosphorylation – biochemical, W721R variant, dose response (AID 504729); assay type: functional
T3 sequence (Q2TB90 whole entry): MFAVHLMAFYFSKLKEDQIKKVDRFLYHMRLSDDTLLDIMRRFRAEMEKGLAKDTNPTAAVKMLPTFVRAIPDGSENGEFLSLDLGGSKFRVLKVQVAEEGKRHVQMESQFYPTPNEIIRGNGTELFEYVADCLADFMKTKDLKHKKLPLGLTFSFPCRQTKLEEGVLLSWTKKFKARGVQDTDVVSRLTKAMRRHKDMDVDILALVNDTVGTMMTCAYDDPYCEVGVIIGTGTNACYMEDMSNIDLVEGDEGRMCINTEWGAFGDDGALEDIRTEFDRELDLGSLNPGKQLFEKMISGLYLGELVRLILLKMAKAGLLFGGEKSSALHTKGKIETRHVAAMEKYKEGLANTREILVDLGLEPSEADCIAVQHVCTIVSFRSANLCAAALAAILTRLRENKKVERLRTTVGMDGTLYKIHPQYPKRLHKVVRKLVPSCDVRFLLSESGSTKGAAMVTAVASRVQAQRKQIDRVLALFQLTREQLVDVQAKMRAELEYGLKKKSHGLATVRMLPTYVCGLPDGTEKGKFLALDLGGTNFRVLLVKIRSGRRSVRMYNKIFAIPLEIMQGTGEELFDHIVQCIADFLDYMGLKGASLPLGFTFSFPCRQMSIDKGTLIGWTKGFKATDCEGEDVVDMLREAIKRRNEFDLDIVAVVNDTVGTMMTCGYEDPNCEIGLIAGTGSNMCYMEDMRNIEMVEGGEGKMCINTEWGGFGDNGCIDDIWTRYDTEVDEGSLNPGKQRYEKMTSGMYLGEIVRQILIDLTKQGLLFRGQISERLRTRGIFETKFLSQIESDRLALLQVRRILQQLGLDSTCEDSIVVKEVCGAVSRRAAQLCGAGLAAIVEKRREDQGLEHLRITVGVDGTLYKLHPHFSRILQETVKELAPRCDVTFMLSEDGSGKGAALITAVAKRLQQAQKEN

Vero [15] = experiment: viability of Vero cells under compound – cytotoxicity control for flavivirus capping enzyme inhibitors (AID 588742); assay type: functional; conditions: Chlorocebus sabaeus
Streptokinase A = molecular target: T4, Streptokinase A (Streptococcus pyogenes serotype M1, UniProt P10520); experiment: viability-normalized secreted streptokinase activity reduction – plasminogen activation absorbance, OD405, dose response (AID 1914); assay type: functional, Streptococcus pyogenes M1 GAS;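 note: secreted streptokinase activity via plasminogen activation per viability signal from cell pellet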
T4 sequence (P10520 whole entry): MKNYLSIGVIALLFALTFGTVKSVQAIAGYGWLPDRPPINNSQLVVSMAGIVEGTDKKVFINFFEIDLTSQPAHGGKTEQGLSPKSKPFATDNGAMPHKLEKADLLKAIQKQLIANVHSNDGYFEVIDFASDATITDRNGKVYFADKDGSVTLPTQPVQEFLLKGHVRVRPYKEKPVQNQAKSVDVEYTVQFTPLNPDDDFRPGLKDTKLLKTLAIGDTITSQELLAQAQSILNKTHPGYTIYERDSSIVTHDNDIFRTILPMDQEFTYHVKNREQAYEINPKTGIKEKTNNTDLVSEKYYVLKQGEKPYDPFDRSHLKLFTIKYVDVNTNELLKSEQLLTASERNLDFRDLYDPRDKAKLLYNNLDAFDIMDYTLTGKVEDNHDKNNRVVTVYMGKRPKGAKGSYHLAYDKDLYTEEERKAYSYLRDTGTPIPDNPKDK

Genome polyprotein = Genome polyprotein (dengue virus type 2, UniProt P29990); experiment: flavivirus cap methylation enzyme inhibition – biochemical, confirmation dose response, primary screen (AID 588689); assay type: functional
[16] = Fluorescence-based cell-based high throughput dose response assay for inhibitors of the interaction of nucleotide-binding oligomerization domain containing 2 (NOD2) and the receptor-interacting serine-threonine kinase 2 (RIPK2).; assay type: functional; conditions: Homo sapiens
HEK293 [17] = experiment: cells; conditions: Homo sapiens
HEK293 [18] = experiment: cells; conditions: Homo sapiens; remark: listed apart in the source
[19] = molecular target: T5, Microphthalmia-associated transcription factor (Homo sapiens, UniProt O75030); experiment: reducers of TRPM1 reporter luminescence, concentration series – cell-based, SK-MEL-5, cherry-picked, set 3, MITF inhibitor project, dose response (AID 493073); assay type: functional;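 note: SK-MEL-5 melanoma cells with luciferase driven by the MITF target TRPM1 promoter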
T5 sequence (O75030 whole entry): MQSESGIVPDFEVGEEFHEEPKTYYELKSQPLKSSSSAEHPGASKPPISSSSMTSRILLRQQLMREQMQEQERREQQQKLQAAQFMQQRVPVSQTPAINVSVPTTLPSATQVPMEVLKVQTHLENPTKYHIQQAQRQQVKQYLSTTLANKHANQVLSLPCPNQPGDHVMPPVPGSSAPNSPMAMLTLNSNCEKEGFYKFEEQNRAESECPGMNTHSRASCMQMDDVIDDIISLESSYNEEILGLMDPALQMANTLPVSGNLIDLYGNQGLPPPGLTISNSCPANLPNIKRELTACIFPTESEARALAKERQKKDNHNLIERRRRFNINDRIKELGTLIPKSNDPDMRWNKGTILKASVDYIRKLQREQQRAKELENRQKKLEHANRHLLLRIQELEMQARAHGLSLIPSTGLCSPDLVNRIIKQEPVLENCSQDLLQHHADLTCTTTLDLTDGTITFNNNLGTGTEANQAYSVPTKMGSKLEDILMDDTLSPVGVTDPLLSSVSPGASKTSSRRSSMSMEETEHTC

Paired box protein Pax-8 = Paired box protein Pax-8 (Homo sapiens, UniProt Q06710); experiment: PAX8 transcriptional activity inhibition in RMG-I – RMG-I cells, luciferase, cherry-pick, dose response (AID 687027); assay type: functional, cell-based;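 note: luciferase reporter driven by Pax8 target thyroperoxidase promoter measured by SteadyGlo luminescence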
A-375 [20] = experiment: proliferation inhibition in MITF-low A375 cells – cell-based, cherry-pick samples, set 2, counter-screen for MITF modulator project, dose response (AID 540335); assay type: functional; conditions: Homo sapiens
A-375 [21] = experiment: MITF: Counter assay: A375 proliferation Measured in Cell-Based System Using Plate Reader - 2084-03_Inhibitor_Dose_DryPowder_Activity. [Related pubchem assays (depositor defined):AID488944]; assay type: functional; conditions: Homo sapiens

T1 sequence (P11940 whole entry, the tested form may be a part): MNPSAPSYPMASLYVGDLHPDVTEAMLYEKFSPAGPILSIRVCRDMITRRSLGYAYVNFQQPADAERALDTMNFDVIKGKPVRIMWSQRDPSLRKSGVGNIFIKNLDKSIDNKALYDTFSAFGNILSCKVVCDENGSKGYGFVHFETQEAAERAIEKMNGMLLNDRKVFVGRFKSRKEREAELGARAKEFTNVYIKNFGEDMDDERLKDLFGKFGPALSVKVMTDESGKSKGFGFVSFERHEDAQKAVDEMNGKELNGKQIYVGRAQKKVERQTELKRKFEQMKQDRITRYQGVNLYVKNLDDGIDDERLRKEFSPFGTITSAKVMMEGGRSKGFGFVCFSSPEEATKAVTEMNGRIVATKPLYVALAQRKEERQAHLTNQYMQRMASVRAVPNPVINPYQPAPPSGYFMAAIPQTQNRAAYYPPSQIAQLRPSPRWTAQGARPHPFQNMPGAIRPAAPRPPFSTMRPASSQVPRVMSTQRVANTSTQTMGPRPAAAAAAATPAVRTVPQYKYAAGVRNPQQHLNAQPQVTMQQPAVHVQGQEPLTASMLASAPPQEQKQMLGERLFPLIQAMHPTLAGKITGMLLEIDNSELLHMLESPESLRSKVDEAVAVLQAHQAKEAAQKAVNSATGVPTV
CAAX prenyl protease 2 (Homo sapiens, UniProt Q9Y256), sequence (Q9Y256 whole entry): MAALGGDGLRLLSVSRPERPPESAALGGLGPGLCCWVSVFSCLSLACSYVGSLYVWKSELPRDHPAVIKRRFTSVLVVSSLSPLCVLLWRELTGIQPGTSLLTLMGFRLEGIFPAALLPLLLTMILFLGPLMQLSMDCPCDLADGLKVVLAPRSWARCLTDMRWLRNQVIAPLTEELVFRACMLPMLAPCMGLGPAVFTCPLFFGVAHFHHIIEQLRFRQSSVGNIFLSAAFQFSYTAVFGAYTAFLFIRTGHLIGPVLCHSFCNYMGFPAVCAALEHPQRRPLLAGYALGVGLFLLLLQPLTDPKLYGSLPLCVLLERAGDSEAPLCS
Large T antigen, sequence (P03070 whole entry): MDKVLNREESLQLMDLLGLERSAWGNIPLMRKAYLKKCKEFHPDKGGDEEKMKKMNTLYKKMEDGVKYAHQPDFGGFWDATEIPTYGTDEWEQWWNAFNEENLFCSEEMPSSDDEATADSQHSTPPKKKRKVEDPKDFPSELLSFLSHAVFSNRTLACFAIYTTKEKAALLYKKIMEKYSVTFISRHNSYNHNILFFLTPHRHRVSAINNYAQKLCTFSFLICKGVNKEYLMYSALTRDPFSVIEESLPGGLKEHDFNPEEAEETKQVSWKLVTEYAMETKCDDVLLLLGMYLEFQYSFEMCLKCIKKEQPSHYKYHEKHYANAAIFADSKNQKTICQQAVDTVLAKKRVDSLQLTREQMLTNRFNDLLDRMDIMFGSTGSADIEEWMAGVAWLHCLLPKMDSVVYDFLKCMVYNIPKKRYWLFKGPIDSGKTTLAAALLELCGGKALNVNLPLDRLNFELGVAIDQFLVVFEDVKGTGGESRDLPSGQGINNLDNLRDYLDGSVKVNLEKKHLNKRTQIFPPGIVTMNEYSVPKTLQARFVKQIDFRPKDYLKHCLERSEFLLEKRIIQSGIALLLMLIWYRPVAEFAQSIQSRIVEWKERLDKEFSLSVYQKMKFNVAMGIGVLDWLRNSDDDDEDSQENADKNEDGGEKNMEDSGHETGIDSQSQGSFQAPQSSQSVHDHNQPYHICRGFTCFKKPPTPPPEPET
Paired box protein Pax-8, sequence (Q06710 whole entry): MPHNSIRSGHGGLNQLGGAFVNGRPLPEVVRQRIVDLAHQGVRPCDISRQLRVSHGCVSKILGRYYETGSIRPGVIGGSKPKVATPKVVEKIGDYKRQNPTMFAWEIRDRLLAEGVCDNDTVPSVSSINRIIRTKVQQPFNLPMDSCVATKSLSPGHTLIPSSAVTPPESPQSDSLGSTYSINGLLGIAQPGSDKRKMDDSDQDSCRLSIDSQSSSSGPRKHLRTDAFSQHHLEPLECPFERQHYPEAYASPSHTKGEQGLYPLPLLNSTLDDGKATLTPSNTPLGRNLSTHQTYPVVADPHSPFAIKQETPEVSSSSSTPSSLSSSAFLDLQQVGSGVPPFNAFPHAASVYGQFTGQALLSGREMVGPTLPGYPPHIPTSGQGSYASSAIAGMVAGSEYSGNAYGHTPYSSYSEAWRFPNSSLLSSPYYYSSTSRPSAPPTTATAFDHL
Genome polyprotein, sequence (P29990 2492-3391 limits assumed): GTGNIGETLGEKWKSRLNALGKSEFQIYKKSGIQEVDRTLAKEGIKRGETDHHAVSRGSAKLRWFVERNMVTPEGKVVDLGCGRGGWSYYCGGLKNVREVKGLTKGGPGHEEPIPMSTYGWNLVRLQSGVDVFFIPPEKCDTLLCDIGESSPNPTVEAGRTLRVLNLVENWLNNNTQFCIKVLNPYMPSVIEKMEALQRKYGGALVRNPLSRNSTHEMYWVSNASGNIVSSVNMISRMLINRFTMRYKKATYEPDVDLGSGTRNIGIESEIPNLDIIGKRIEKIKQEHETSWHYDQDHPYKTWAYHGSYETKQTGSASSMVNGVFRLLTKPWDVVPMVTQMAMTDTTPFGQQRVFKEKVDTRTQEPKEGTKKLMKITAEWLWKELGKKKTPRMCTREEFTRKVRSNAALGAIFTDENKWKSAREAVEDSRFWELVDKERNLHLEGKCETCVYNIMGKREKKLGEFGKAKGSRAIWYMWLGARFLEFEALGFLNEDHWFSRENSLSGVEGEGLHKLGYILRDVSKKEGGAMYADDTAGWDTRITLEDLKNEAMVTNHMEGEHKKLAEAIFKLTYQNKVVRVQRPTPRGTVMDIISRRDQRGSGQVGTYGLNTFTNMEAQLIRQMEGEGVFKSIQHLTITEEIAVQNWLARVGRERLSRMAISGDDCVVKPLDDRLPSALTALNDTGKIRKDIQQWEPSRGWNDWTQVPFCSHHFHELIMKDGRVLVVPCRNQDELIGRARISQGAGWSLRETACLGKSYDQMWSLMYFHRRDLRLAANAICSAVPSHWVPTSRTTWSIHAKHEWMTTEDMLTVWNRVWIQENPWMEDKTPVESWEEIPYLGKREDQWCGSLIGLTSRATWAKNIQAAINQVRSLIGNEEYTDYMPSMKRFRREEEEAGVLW
CAAX prenyl protease 2 (Saccharomyces cerevisiae S288c, UniProt Q03530), sequence (Q03530 whole entry): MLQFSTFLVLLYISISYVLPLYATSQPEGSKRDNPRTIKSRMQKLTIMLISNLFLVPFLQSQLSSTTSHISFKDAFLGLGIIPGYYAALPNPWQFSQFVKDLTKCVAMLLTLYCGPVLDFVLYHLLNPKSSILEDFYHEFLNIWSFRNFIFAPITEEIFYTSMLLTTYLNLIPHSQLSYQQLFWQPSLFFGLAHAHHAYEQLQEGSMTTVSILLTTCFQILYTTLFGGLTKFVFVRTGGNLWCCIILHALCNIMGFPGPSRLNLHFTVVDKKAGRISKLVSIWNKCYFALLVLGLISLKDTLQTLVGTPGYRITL
Trypsin, sequence (P00761 whole entry): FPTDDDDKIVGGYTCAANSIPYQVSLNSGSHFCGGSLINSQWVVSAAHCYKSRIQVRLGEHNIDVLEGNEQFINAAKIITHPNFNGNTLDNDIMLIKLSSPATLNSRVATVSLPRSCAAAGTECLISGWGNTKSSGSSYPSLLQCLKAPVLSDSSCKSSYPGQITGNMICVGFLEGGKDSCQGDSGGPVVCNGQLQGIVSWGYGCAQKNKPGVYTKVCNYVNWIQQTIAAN

**Q.** With `OC1=C2Sc3ccccc3N=C2CCC1` as the compound, how does the IC50 [1] read?
**A.** 59 µM (inactive)

**Q.** What about the IC50 [2] of the same compound?
**A.** 35.2 µM (inactive)

**Q.** And the AC50 [3]?
**A.** 8.45 µM (active)

**Q.** What about the IC50 (Large T antigen) of the same compound?
**A.** 9.55 µM (active)

**Q.** With `CC(Oc1cccc(Cl)c1)C(=O)Nc1nc(-c2ccccn2)cs1` (stereo unspecified) as the compound, how does the EC50 [4] read?
**A.** 11.9 µM (active)

**Q.** And the IC50 (Vero [5])?
**A.** > 25 µM (active)

**Q.** And the EC50 [6]?
**A.** 10.4 µM (active)

**Q.** What about the EC50 [7] of the same compound?
**A.** 9.63 µM (active)

**Q.** What about the CC50 (Vero [8]) of the same compound?
**A.** 15.8 µM (active)

**Q.** What about the IC50 (H9c2) of the same compound?
**A.** > 79 µM (inactive)

**Q.** And the EC50 [9]?
**A.** 6.81 µM (active)

**Q.** What about the EC50 [10] of the same compound?
**A.** 0.822 µM (active)

**Q.** For `COc1ccc(-c2cc(C(=O)NCCCN3CCCC3=O)c3ccccc3n2)cc1`, which AC50 (CAAX prenyl protease 2 [11]) is on record?
**A.** 18 µM (active)

**Q.** And the AC50 (Trypsin)?
**A.** 9.31 µM (active)

**Q.** And the IC50 [12]?
**A.** > 20 µM (inactive)

**Q.** What about the AC50 (CAAX prenyl protease 2 [13]) of the same compound?
**A.** 23.3 µM (active)

**Q.** With `COc1ccc(C(=O)c2coc3c2C(=O)C(=O)c2ccccc2-3)cc1` as the compound, how does the EC50 [14] read?
**A.** 1.84 µM (active)

**Q.** What about the EC50 (Streptococcus) of the same compound?
**A.** 14.7 µM (active)

**Q.** And the IC50 (Hexokinase HKDC1)?
**A.** 11.3 µM (active)

**Q.** And the CC50 (Vero [8])?
**A.** > 25 µM (active)

**Q.** And the CC50 (Vero [15])?
**A.** > 40 µM (active)

**Q.** What about the EC50 (Streptokinase A) of the same compound?
**A.** > 150 µM (not active)

**Q.** What about the IC50 (Genome polyprotein) of the same compound?
**A.** 34.5 µM (active)

**Q.** Which IC50 [16] does the source give for `O=C(Cn1ncc(Cl)c(Cl)c1=O)Nc1ccc2c(c1)OCO2` here?
**A.** 11.8 µM (inactive)

**Q.** And the EC50 (HEK293 [17])?
**A.** > 59.6 µM (inactive)

**Q.** What about the EC50 (HEK293 [18]) of the same compound?
**A.** > 59.6 µM (inactive)

**Q.** And the AC50 [19]?
**A.** 13.2 µM (active)

**Q.** What about the AC50 (Paired box protein Pax-8) of the same compound?
**A.** 4.07 µM (active)

**Q.** Which AC50 (CAAX prenyl protease 2 [13]) does the source give for `Cc1ccc(-c2nc(CN3CCCCC3)cc(CN3CCCCC3)c2O)cc1` here?
**A.** 10.1 µM (active)

**Q.** What does the source list for `NC(=NOC(=O)c1ccncc1)c1cccc([N+](=O)[O-])c1`?
**A.** AC50 (A-375 [20]): > 35 µM (active); AC50 (A-375 [21]): > 35 µM (active)
